Measured values published in patent US6737383B1, “Herbicidal oxadiazolidines” (priority 1999, dated 2004).

Assays:
surinam grass = assay: Test B pre/postemergence surinam grass; format: in vivo, Brachiaria decumbens
Outline: (§1)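 Test chemicals in a non-phytotoxic solvent mixture with surfactant were sprayed preemergence onto planted seeds and postemergence onto plants 2 to 18 cm tall (1- to 4-leaf stage). After twelve to sixteen days in a greenhouse, injury was visually rated against untreated controls from 0 (no effect) to 10 (complete control).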

sugar beet = assay: Test B pre/postemergence sugar beet; format: in vivo, Beta vulgaris
Outline: as §1

purple nutsedge = assay: Test B pre/postemergence purple nutsedge; format: in vivo, Cyperus rotundus
Outline: as §1

smallflower flatsedge = assay: Test B flood test smallflower flatsedge; format: in vivo, Cyperus difformis
Outline: (§2)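 Flood test on plants grown to the 2-leaf stage; treated plants kept in greenhouse twelve to sixteen days, then visually rated against controls on a 0 (no effect) to 10 (complete control) scale.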

cocklebur = assay: Test B pre/postemergence cocklebur; format: in vivo, Xanthium strumarium
Outline: as §1

bedstraw = assay: Test B pre/postemergence bedstraw; format: in vivo, Galium aparine
Outline: as §1

crabgrass = assay: Test B pre/postemergence crabgrass; format: in vivo, Digitaria sanguinalis
Outline: as §1

pigweed = assay: Test B pre/postemergence pigweed; format: in vivo, Amaranthus retroflexus
Outline: as §1

wild oat = assay: Test B pre/postemergence wild oat; format: in vivo, Avena fatua
Outline: as §1

corn = assay: Test B pre/postemergence corn; format: in vivo, Zea mays
Outline: as §1

velvetleaf = assay: Test B pre/postemergence velvetleaf; format: in vivo, Abutilon theophrasti
Outline: as §1

blackgrass = assay: Test B pre/postemergence blackgrass; format: in vivo, Alopecurus myosuroides
Outline: as §1

duck salad = assay: Test B flood test duck salad; format: in vivo, Heteranthera limosa
Outline: as §2

morningglory = assay: Test B pre/postemergence morningglory; format: in vivo, Ipomoea hederacea
Outline: as §1

rape = assay: Test B pre/postemergence rape; format: in vivo, Brassica napus
Outline: as §1

wheat = assay: Test B pre/postemergence wheat; format: in vivo, Triticum aestivum
Outline: as §1

[1] = Postemergence, Rate 31 g/ha, visual rating, scale 0 to 10 (0 no effect, 10 complete control)
[2] = Preemergence, Rate 31 g/ha, visual rating, scale 0 to 10 (0 no effect, 10 complete control)
[3] = Preemergence, Rate 62 g/ha, scale of 0 to 10 where 0 is no effect and 10 is complete control
[4] = Preemergence, Rate 250 g/ha, scale of 0 to 10 where 0 is no effect and 10 is complete control
[5] = Rate 62 g/ha, Postemergence, scale 0 to 10, 0 no effect, 10 complete control
[6] = Rate 125 g/ha, Postemergence, scale of 0 to 10 where 0 is no effect and 10 is complete control
[7] = Rate 250 g/ha, Postemergence, scale of 0 to 10 where 0 is no effect and 10 is complete control
[8] = Rate 31 g/ha, Pre-emergence section (flood test species), scale 0 to 10
[9] = Rate 62 g/ha, headed Pre-emergence (flood test species), scale 0 to 10 (0 no effect, 10 complete control)
[10] = Rate 125 g/ha, Pre-emergence, flood test species, scale 0 to 10 where 0 is no effect and 10 is complete control
[11] = Rate 250 g/ha, Pre-emergence, flood-test species, scale 0 to 10, 0 is no effect, 10 is complete control

## COCC(C)N(C(=O)n1oc(=O)n(-c2ccccc2C)c1=O)c1ccc(F)cc1 (stereo not shown) [Compound 324]
Surinam grass; [1]
  B. signalgrass plant response rating: 0
Surinam grass; [2]
  B. signalgrass plant response rating: 0
Surinam grass; [3]
  B. signalgrass plant response rating: 0
Surinam grass; Preemergence, Rate 125 g/ha
  B. signalgrass plant response rating (0 to 10 scale, 0 is no effect, 10 is complete control): 0
Surinam grass; [4]
  B. signalgrass plant response rating: 0
Surinam grass; [5]
  B. signalgrass plant response rating: 0
Surinam grass; [6]
  B. signalgrass plant response rating: 0
Surinam grass; [7]
  Plant response rating, B. signalgrass: 0
Sugar beet; [1]
  Sugarbeets plant response rating: 0
Sugar beet; [3]
  Sugarbeets plant response rating: 0
Sugar beet; Preemergence, Rate 125 g/ha
  Sugarbeets plant response rating (0 to 10 scale): 0
Sugar beet; [4]
  Sugarbeets plant response rating: 0
Sugar beet; [5]
  Sugarbeets plant response rating: 0
Sugar beet; [6]
  Sugarbeets plant response rating: 0
Sugar beet; [7]
  Plant response rating, Sugarbeets: 0
Purple nutsedge; [1]
  Nutsedge plant response rating: 0
Purple nutsedge; [3]
  Nutsedge plant response rating: 0
Purple nutsedge; Preemergence, Rate 125 g/ha
  Nutsedge plant response rating (0 to 10 scale): 0
Purple nutsedge; [4]
  Nutsedge plant response rating: 0
Purple nutsedge; [5]
  Nutsedge plant response rating: 0
Purple nutsedge; [6]
  Nutsedge plant response rating: 0
Purple nutsedge; [7]
  Plant response rating, Nutsedge: 0
Smallflower flatsedge; [8]
  S. Flatsedge plant response rating: 0
Smallflower flatsedge; [9]
  S. Flatsedge plant response rating: 0
Smallflower flatsedge; [10]
  S. Flatsedge plant response rating: 0
Smallflower flatsedge; [11]
  S. Flatsedge plant response rating: 0
cocklebur; [1]
  Cocklebur plant response rating: 0
cocklebur; [2]
  Cocklebur plant response rating: 0
cocklebur; [3]
  Cocklebur plant response rating: 0
cocklebur; Preemergence, Rate 125 g/ha
  Cocklebur plant response rating (0 to 10 scale): 0
cocklebur; [4]
  Cocklebur plant response rating: 0
cocklebur; [5]
  Cocklebur plant response rating: 0
cocklebur; [6]
  Cocklebur plant response rating: 0
cocklebur; [7]
  Plant response rating, Cocklebur: 2
bedstraw; [1]
  Bedstraw plant response rating: 0
bedstraw; [2]
  Bedstraw plant response rating: 0
bedstraw; [3]
  Bedstraw plant response rating: 0
bedstraw; Preemergence, Rate 125 g/ha
  Bedstraw plant response rating (0 to 10 scale): 0
bedstraw; [4]
  Bedstraw plant response rating: 0
bedstraw; [5]
  Bedstraw plant response rating: 0
bedstraw; [6]
  Bedstraw plant response rating: 0
bedstraw; [7]
  Plant response rating, Bedstraw: 0
crabgrass; [1]
  Crabgrass plant response rating: 0
crabgrass; [2]
  Crabgrass plant response rating: 0
crabgrass; [3]
  Crabgrass plant response rating: 0
crabgrass; Preemergence, Rate 125 g/ha
  Crabgrass plant response rating (0 to 10 scale): 0
crabgrass; [4]
  Crabgrass plant response rating: 0
crabgrass; [5]
  Crabgrass plant response rating: 0
crabgrass; [6]
  Crabgrass plant response rating: 0
crabgrass; [7]
  Plant response rating, Crabgrass: 0
pigweed; [1]
  Redroot pigweed plant response rating: 0
pigweed; [3]
  Redroot pigweed plant response rating: 0
pigweed; Preemergence, Rate 125 g/ha
  Redroot pigweed plant response rating (0 to 10 scale): 0
pigweed; [4]
  Redroot pigweed plant response rating: 0
pigweed; [5]
  Redroot pigweed plant response rating: 0
pigweed; [6]
  Redroot pigweed plant response rating: 0
pigweed; [7]
  Plant response rating, Redroot pigweed: 0
Wild oat; [1]
  Wild oats plant response rating: 0
Wild oat; [3]
  Wild oats plant response rating: 0
Wild oat; Preemergence, Rate 125 g/ha
  Wild oats plant response rating (0 to 10 scale): 0
Wild oat; [4]
  Wild oats plant response rating: 0
Wild oat; [5]
  Wild oats plant response rating: 0
Wild oat; [6]
  Wild oats plant response rating: 0
Wild oat; [7]
  Plant response rating, Wild oats: 0
corn; [1]
  Corn plant response rating: 0
corn; [2]
  Corn plant response rating: 0
corn; [3]
  Corn plant response rating: 0
corn; Preemergence, Rate 125 g/ha
  Corn plant response rating (0 to 10 scale): 0
corn; [4]
  Corn plant response rating: 0
corn; [5]
  Corn plant response rating: 0
corn; [6]
  Corn plant response rating: 0
corn; [7]
  Plant response rating, Corn: 0
velvetleaf; [1]
  Velvetleaf plant response rating: 0
velvetleaf; [3]
  Velvetleaf plant response rating: 0
velvetleaf; Preemergence, Rate 125 g/ha
  Velvetleaf plant response rating (0 to 10 scale): 0
velvetleaf; [4]
  Velvetleaf plant response rating: 0
velvetleaf; [5]
  Velvetleaf plant response rating: 0
velvetleaf; [6]
  Velvetleaf plant response rating: 0
velvetleaf; [7]
  Plant response rating, Velvetleaf: 0
blackgrass; [1]
  Blackgrass plant response rating: 0
blackgrass; [2]
  Blackgrass plant response rating: 0
blackgrass; [3]
  Blackgrass plant response rating: 0
blackgrass; Preemergence, Rate 125 g/ha
  Blackgrass plant response rating (0 to 10 scale): 0
blackgrass; [4]
  Blackgrass plant response rating: 0
blackgrass; [5]
  Blackgrass plant response rating: 0
blackgrass; [6]
  Blackgrass plant response rating: 0
blackgrass; [7]
  Plant response rating, Blackgrass: 0
Duck salad; [8]
  Ducksalad plant response rating: 0
Duck salad; [9]
  Ducksalad plant response rating: 0
Duck salad; [10]
  Ducksalad plant response rating: 0
Duck salad; [11]
  Ducksalad plant response rating: 0
morningglory; [1]
  Morningglory plant response rating: 0
morningglory; [3]
  Morningglory plant response rating: 0
morningglory; Preemergence, Rate 125 g/ha
  Morningglory plant response rating (0 to 10 scale): 0
morningglory; [4]
  Morningglory plant response rating: 0
morningglory; [5]
  Morningglory plant response rating: 0
morningglory; [6]
  Morningglory plant response rating: 0
morningglory; [7]
  Plant response rating, Morningglory: 0
rape; [1]
  Rape plant response rating: 0
rape; [3]
  Rape plant response rating: 0
rape; Preemergence, Rate 125 g/ha
  Rape plant response rating (0 to 10 scale): 0
rape; [4]
  Rape plant response rating: 0
rape; [5]
  Rape plant response rating: 0
rape; [6]
  Rape plant response rating: 0
rape; [7]
  Plant response rating, Rape: 0
wheat; [1]
  Wheat plant response rating: 0
wheat; [3]
  Wheat plant response rating: 0
wheat; Preemergence, Rate 125 g/ha
  Wheat plant response rating (0 to 10 scale): 0
wheat; [4]
  Wheat plant response rating: 0
wheat; [5]
  Wheat plant response rating: 0
wheat; [6]
  Wheat plant response rating: 0
wheat; [7]
  Plant response rating, Wheat: 0
